Legend:
[1] = test system: myocardial ischemia-reperfusion injury; assay: Mouse myocardial ischemia-reperfusion (45 min LAD coronary artery occlusion, 24 h reperfusion), infarct size/area at risk; type: in vivo, mice
Protocol: Mice were injected with 5-aza-2′dC or saline, then subjected to ischemia. […] Both visual blanching and ST segment elevation on continuous ECG display confirmed myocardial ischemia. After 45 minutes, the PE-10 tubing was removed, permitting reperfusion. The sternotomy wound was closed in two layers with 4-0 Vicryl (Ethicon, Inc., Sommerville, N.J.) and the mouse extubated. 24 hours later, the mice were sacrificed, and infarcted and at-risk myocardial tissue was quantitated to determine infarct size.
The volume of viable myocardium remaining was determined by incubation of the tissue with 2% triphenyltetrazolium chloride: mice were euthanized by CO2 inhalation, the hearts were removed, and the aorta cannulated with a 21-gauge blunt-ended needle. Hearts were perfused with 3 ml of phosphate buffered saline solution, followed by 3 ml of 1% (2,3,5)-triphenyltetrazolium (TTC) at 37° C. The hearts were frozen at −80° C. for 20 minutes and cut into 1.5-mm slices. Each slice was individually weighed and photographed with incident light on both sides with a Leica DC200 CCD camera and MZ16 stereomicroscope (Leica Microsystems, Inc.) Infarct area was determined by visualizing TTC precipitate-excluded areas using NIH Image J software.
The volume of tissue at risk for ischemic injury (i.e. tissue lacking normal blood flow during the occlusion) was assessed by injection of the mice with FluoSphere 15-micron fluorescent microspheres (Molecular Probes/Invitrogen, Eugene, Oreg.) in the ascending aorta (clamped distally) after re-ligation of the left anterior descending coronary artery. The heart was sectioned, and fluorescence measured by cutting the tissue into 100 μm slices and determining the area of microsphere perfused cardiac tissue (perfused tissue) and the area excluded from microspheres (area at risk).
The volume of necrotic tissue was divided by the volume of tissue at risk for ischemic injury, to obtain the infarct size. Infarct size in the drug-treated groups was compared to the infarct size in the vehicle-treated group to determine the relative reduction in injury reported in the Table.
To ascertain the effect of DNMT inhibition on ischemic injury, mice were injected in the left ventricle with either the DNMT inhibitor 5-aza-2-deoxycytidine (5-aza-2′dC) or saline (negative control), then cardiac ischemia was induced by occlusion of the left anterior descending coronary artery for 45 minutes. The hearts were re-perfused for 24 hours, and the mice were sacrificed.
Mice were administered either the HDAC inhibitor TSA or vehicle (DMSO) alone, in the left ventricle. Ischemia was induced by occlusion of the left anterior descending coronary artery for 45 minutes, and mice were sacrificed following a 24-hour reperfusion period. The volume of infarcted and at-risk myocardial tissue was quantitated as described for Example 1.
To further characterize the effect of HDAC inhibitors and DNMT inhibitors on ischemic injury, a larger study was conducted, in which the HDAC inhibitor was added at several time points. In addition, a different HDAC inhibitor, Scriptaid (BioMol, Plymouth Meeting, Pa.), was tested, together with its corresponding negative control compound, Nullscript (Biomol). Ischemia was induced, and amounts of viable and necrotic tissue measured, as described for Example 1. A total of 217 mice were utilized in this Example, distributed as follows: Saline=38; DMSO=45; Nullscript=11; TSA-T1=31; TSA-T2=25; TSA-T3=15; Scriptaid=25; 5aza2′dC=27. […] In addition, HDAC inhibitors were effective when administered either before ischemia or 1 hour after ischemia.

[2] = test system: histone H3 acetylation (acetyl-Lys9 H3); assay: Histone acetylation in ischemic myocardium, acid/urea gel and anti-acetyl H3 Western blot; type: in vivo, mice; details: pre-treatment (1 hour before ischemia)
Protocol: Cells were lysed in Triton X/deoxycholate buffer (20 millimolar [mM] HEPES, pH 7.2, 1% Triton X-100, 1% sodium deoxycholate, 100 mM sodium chloride, 50 mM sodium fluoride, 5 mM EDTA, 100 μM sodium molybdate, with protease inhibitors), and insoluble material was removed by a 15 minute (min) centrifugation in a microfuge, and the supernatant was subjected to 100,000×g, […] centrifugation. The pellet was extracted with 9 M urea, and the resulting pellet extracted with 0.3 M HCl.
40 centimeter (cm) acetic acid/urea gels were prepared as follows: The separating gel (0.75 millimeter [mm] thick) contained 15% acrylamide/0.2% methylenebisacrylamide, 4 molar (M) urea, and 5% acetic acid. The stacking gel contained 7.5% acrylamide/0.1% methylenebisacrylamide, 8 M urea, and 5% acetic acid. Proteins were solubilized in sample buffer (8 M urea, 5% acetic acid, 5% 2-mercaptoethanol, 25 milligram per milliliter (mg/ml) protamine sulfate, with methyl green) and loaded onto gels that had been pre-electrophoresed to a constant current and scavenged with […] cysteamine (Sigma-Aldrich). […]
To determine the effect of ischemia and HDAC inhibitors on histone acetylation, ischemia was induced in mice, as described in Example 1, and the degree of histone acetylation in myocardium was determined Histone acetylation was reduced in response to ischemia (FIG. 1).

[3] = time of treatment not given in Table 3
[4] = T1: treatment 1 hour before ischemia
[5] = T2: treatment 1 hour after ischemia
[6] = T3: treatment 12 hours after ischemia

## Nc1ncn([C@H]2C[C@H](O)[C@@H](CO)O2)c(=O)n1 [5-aza-2′dC, 5-aza-2-deoxycytidine]
[1]; mice, injected in left ventricle before 45 min LAD occlusion, 24 h reperfusion
  reduction of infarct size vs saline: 69.6%
[1]; mice, injected in left ventricle before 45 min LAD occlusion, 24 h reperfusion (Table 1)
  Ratio of infarct size/area at risk: 10.3%
[1]; [3]
  % decrease (w.r.t. DMSO): 71.40%
  Infarct size/area at risk (±SEM): 10.3% ± 0.03%

## O=C(CCCCCN1C(=O)c2cccc3cccc(c23)C1=O)NO [Scriptaid]
[1]; [4]
  % decrease (w.r.t. DMSO): 44.20%
  Infarct size/area at risk (±SEM): 21.2% ± 0.33%

## O=C(CCCN1C(=O)c2cccc3cccc(c23)C1=O)NO [Nullscript]
[1]; [3]
  Infarct size/area at risk (±SEM): 38.0% ± 0.56%

## CC(/C=C/C(=O)NO)=C\[C@@H](C)C(=O)c1ccc(N(C)C)cc1 [TSA, trichostatin A]
[1]; [4]
  % decrease (w.r.t. DMSO): 48.30%
  Infarct size/area at risk (±SEM): 18.6% ± 0.04%
[1]; [5]
  % decrease (w.r.t. DMSO): 55.60%
  Infarct size/area at risk (±SEM): 16.0% ± 0.04%
[1]; [6]
  % decrease (w.r.t. DMSO): 8.30%
  Infarct size/area at risk (±SEM): 33.0% ± 0.05%
[1]; mice, administered in left ventricle, 45 min LAD occlusion, 24 h reperfusion
  reduction in infarct size vs DMSO vehicle: 48.3%
[1]; mice, administered in left ventricle, 45 min LAD occlusion, 24 h reperfusion (Table 2)
  Ratio of infarct size/area at risk: 18.6%
[2]
  effect on ischemia-induced reduction in histone acetylation: partially prevented the reduction in histone acetylation

Reference: patent publication US9393222B2, “Use of HDAC and/or DNMT inhibitors for treatment of ischemic injury” (The Trustees of the University of Pennsylvania, priority 2004, dated 2016)
